The test system of the assay is Calu-6 tumour xenograft. Put plainly: Calu-6 tumour xenograft in vivo solid tumour model. The settings on record: once-daily oral, 28 days.

From patent US20080125447A1, “Combination Therapy” (priority 2004, published 2008) come the findings set out here.

On to `COc1cc2c(Oc3ccc4[nH]c(C)cc4c3F)ncnc2cc1OCCCN1CCCC1` [AZD2171, 4-(4-fluoro-2-methyl-1H-indol-5-yloxy)-6-methoxy-7-(3-(pyrrolidin-1-yl)propoxy)quinazoline], for which the “inhibition of Calu-6 tumour xenograft growth” value runs as follows: (1.5 mg/kg/day, P<0.01 one-tailed t test) 49%; (3 mg/kg/day, P<0.0001 one-tailed t test) 69%; (6 mg/kg/day, P<0.0001 one-tailed t test) 91%.
